A short description of this data set: in vitro. To be noted: human, hela cells, % viability.
With `Cc1ccc(S(=O)(=O)N(C)CC(=O)NCc2nc(-c3ccccc3)no2)cc1` [CBK268524], the viability at 28.5 h, 10 µM was 93.4%.

Consider `COc1ccc(S(=O)(=O)N(CC(=O)N2CCc3ccccc3C2)C2CCCCC2)cc1Cl` [CBK268525], for which the viability at 28.5 h, 10 µM stood at 97.9%.

As for `Cc1nn2c(COc3ccc(NC(=O)C4CCCCC4)cc3)nnc2c2ccccc12` [CBK268528], the viability at 28.5 h, 10 µM came out at 104%.

Turning to `O=C(O)CC(C(=O)O)c1ccc(F)cc1` (stereo not shown) [CBK268531], the viability at 28.5 h, 10 µM was determined as 87.6%.

Turning to `N#Cc1ccccc1Cn1cc(C(=O)COc2ccccc2)c2ccccc21` [CBK268532], the viability at 28.5 h, 10 µM stood at 90.5%.

On to `Cn1c(Cc2cccs2)nnc1SCC(=O)c1c[nH]c2ccccc12` [CBK268534], for which the viability at 28.5 h, 10 µM came to 102%.

For `CCOc1ccccc1OCc1nn2c(-c3ccncc3)nnc2s1` [CBK268535], the viability at 28.5 h, 10 µM came to 111%.

On to `O=C(Nc1cnn(C23CC4CC(CC(C4)C2)C3)c1)c1cnn2c(C(F)(F)F)cc(-c3ccco3)nc12` [CBK268538], for which the viability at 28.5 h, 10 µM worked out at 52.4%.

Consider `CS(=O)(=O)N(CC(=O)Nc1ccccc1-c1ccccc1)c1ccc(F)c(Cl)c1` [CBK268539], for which the viability at 28.5 h, 10 µM was found to be 91.2%.

For the compound `Cn1c(NCc2ccccn2)nc2ccccc21` [CBK268544], the viability at 28.5 h, 10 µM worked out at 110%.

With `COc1ccc(CNc2nc(-c3ccc(C)cc3)nn2C(=O)c2cccc([N+](=O)[O-])c2)cc1` [CBK268546], the viability at 28.5 h, 10 µM was 67.9%.

With `O=C(COc1ccc(S(=O)(=O)N2CCCCC2)cc1)N1CCC(Cc2ccccc2)CC1` [CBK268547], the viability at 28.5 h, 10 µM was found to be 108%.

For `O=C(CSCc1ccc([N+](=O)[O-])cc1)Nc1c[nH]c(=O)[nH]c1=O` [CBK268549], the viability at 28.5 h, 10 µM turned out to be 98.5%.

In the case of `Fc1ccccc1COc1cccc(CNCc2ccccn2)c1` [CBK268552C], the viability at 28.5 h, 10 µM is 101%.

Turning to `COC(=O)c1ccc2c(=O)n(CCN3CCOCC3)c(=S)[nH]c2c1` [CBK268553], the viability at 28.5 h, 10 µM was 69%.

On to `Cc1ccc(S(=O)(=O)NCc2ccccc2)c(C)c1NS(C)(=O)=O` [CBK268555], for which the viability at 28.5 h, 10 µM is 90.2%.

For `c1cnc2c(OCc3nc4ccccc4[nH]3)cccc2c1` [CBK268556], the viability at 28.5 h, 10 µM stood at 74.6%.

In the case of `O=C(COc1ccc(S(=O)(=O)N2CCCC2)cc1Cl)Nc1ccc2c(c1)OCCO2` [CBK268559], the viability at 28.5 h, 10 µM worked out at 116%.

Turning to `CC(Oc1ccc(Cl)cc1Cl)C(=O)Nc1ccc(N2CCN(C)CC2)c(Cl)c1` (stereo not shown) [CBK268563], the viability at 28.5 h, 10 µM turned out to be 85%.

`Cc1cccc(C(=O)Nc2ccccc2C(=O)N2CCN(C)CC2)c1` [CBK268565]: the viability at 28.5 h, 10 µM was 89%.

Consider `O=C(O)c1cccc(C(=O)Nc2cccc(NC(=O)C3CCCO3)c2)c1` (stereo not shown) [CBK268566], for which the viability at 28.5 h, 10 µM came out at 108%.

As to `Cc1ccc(SC(C)C(=O)O/N=C(\N)c2ccccn2)cc1` (stereo not shown) [CBK268567], the viability at 28.5 h, 10 µM worked out at 111%.

`Cc1ccccc1OC(C)C(=O)NCCCc1ccccc1` (stereo not shown) [CBK268571]: the viability at 28.5 h, 10 µM is 88.3%.

`CCOc1ccccc1NC(=O)c1ccc(CS(=O)(=O)c2ccc(C)cc2)cc1` [CBK268572]: the viability at 28.5 h, 10 µM worked out at 95.1%.

`O=C(CCN1C(=O)c2cc(Cl)c(Cl)cc2C1=O)Nc1cccc(-c2cnc3ccccc3n2)c1` [CBK268575]: the viability at 28.5 h, 10 µM is 114%.

Take `Cc1ccc(NS(=O)(=O)c2cc(C(=O)N3CCN(C)CC3)ccc2C)cc1` [CBK268577]: the viability at 28.5 h, 10 µM turned out to be 92.5%.

On to `O=C(Nn1cnnc1)c1ccccc1CCc1ccccc1` [CBK268578], for which the viability at 28.5 h, 10 µM is 87.7%.

On to `COc1cc(C)c(NC(=O)C(=S)NCc2ccco2)cc1C` [CBK268582], for which the viability at 28.5 h, 10 µM worked out at 103%.

Turning to `COc1ccc(S(=O)(=O)N(CC(=O)Nc2ccc3c(c2)OCCO3)c2ccc(F)cc2)cc1` [CBK268584], the viability at 28.5 h, 10 µM came to 114%.

Regarding `Oc1c(C(Nc2cccnc2)c2ccccc2OCc2ccccc2)ccc2cccnc12` (stereo not shown) [CBK268587], the viability at 28.5 h, 10 µM worked out at 71.5%.

Take `O=C(NCc1ccc2c(c1)OCO2)c1ccccc1CCc1ccccc1` [CBK268591]: the viability at 28.5 h, 10 µM was 107%.

Take `CS(=O)(=O)Nc1ccc(C(=O)Nc2ccc(S(=O)(=O)N3CCCC3)cc2)cc1` [CBK268592]: the viability at 28.5 h, 10 µM came to 116%.

As for `COc1ccc([N+](=O)[O-])cc1NC(=O)c1cc(Cl)c(OC)c(Cl)c1` [CBK268594], the viability at 28.5 h, 10 µM came out at 82.6%.

On to `CN(Cc1nc(-c2ccncc2)no1)S(=O)(=O)c1ccc(Br)cc1` [CBK268598], for which the viability at 28.5 h, 10 µM was determined as 94.6%.

Turning to `Cc1cccc(C(=O)Nc2cccc(OCC(=O)O)c2)c1` [CBK268599], the viability at 28.5 h, 10 µM turned out to be 114%.

Consider `Cc1cc(OCc2nnc(SCC(=O)Nc3ccc(I)cc3)n2C)ccc1Cl` [CBK268600], for which the viability at 28.5 h, 10 µM worked out at 113%.

With `Cc1cc(C)cc(OCc2nnc(SCC(=O)Nc3c(F)cc(F)cc3Br)n2C)c1` [CBK268604], the viability at 28.5 h, 10 µM is 83.6%.

With `O=C(O)Cc1ccc(NC(=O)c2cccc(NC(=O)c3ccco3)c2)cc1` [CBK268606], the viability at 28.5 h, 10 µM was determined as 96.7%.

Turning to `CCn1c(SCc2nc(-c3cccs3)no2)nnc1-c1c[nH]c2ccccc12` [CBK268607], the viability at 28.5 h, 10 µM is 104%.

As for `CCn1c(SCC(=O)Nc2c(Cl)cc(Cl)cc2Cl)nnc1-c1ccccc1F` [CBK268609], the viability at 28.5 h, 10 µM amounted to 102%.

Take `Cc1ccc(SC(C)C(=O)Nc2cc(Cl)ccc2O)cc1` (stereo not shown) [CBK268610]: the viability at 28.5 h, 10 µM worked out at 87.9%.

Take `O=C(O)c1ccc(C(=O)Nc2cccc(NC(=O)C3CCCO3)c2)cc1` (stereo not shown) [CBK268613]: the viability at 28.5 h, 10 µM worked out at 105%.

On to `Cc1cc(Cl)cc(Br)c1OCCNCCN1CCOCC1` [CBK268615G], for which the viability at 28.5 h, 10 µM was determined as 111%.

On to `CN(CC(=O)O/N=C(\N)c1ccccn1)S(=O)(=O)c1ccc(Br)cc1` [CBK268617], for which the viability at 28.5 h, 10 µM came out at 96.9%.

Regarding `CN(CC(=O)Nc1nnc[nH]1)S(=O)(=O)c1ccc(Br)cc1` [CBK268618], the viability at 28.5 h, 10 µM was determined as 91.1%.

As for `O=C(c1ccccc1CCc1ccccc1)N1CCN(Cc2ccc3c(c2)OCO3)CC1` [CBK268623], the viability at 28.5 h, 10 µM was determined as 120%.

On to `Cc1ccc(SC(C)C(=O)NCCCN2CCOCC2)cc1` (stereo not shown) [CBK268624], for which the viability at 28.5 h, 10 µM turned out to be 88.5%.

As for `COc1ccccc1C(=O)Nc1ccccc1C(=O)Nc1ccc(C(=O)O)cc1` [CBK268625], the viability at 28.5 h, 10 µM stood at 94.7%.

In the case of `CC(C)(C)c1ccc(C(=O)Nc2ccccc2C(=O)Nc2ccc(C(=O)O)cc2)cc1` [CBK268626], the viability at 28.5 h, 10 µM amounted to 89.1%.

`Cc1ccccc1OC(C)C(=O)NCCCN1CCOCC1` (stereo not shown) [CBK268628]: the viability at 28.5 h, 10 µM stood at 112%.

Consider `COc1ccc(NC(=O)c2ccccc2CCc2ccccc2)c([N+](=O)[O-])c1` [CBK268632], for which the viability at 28.5 h, 10 µM turned out to be 97%.

Turning to `CC(C)(C)C1CCc2c(sc(NC(=S)NC(=O)COc3ccccc3)c2C(N)=O)C1` (stereo not shown) [CBK268634], the viability at 28.5 h, 10 µM amounted to 107%.

Turning to `O=C(Nc1cccc(O)c1)c1ccc2c(c1)C(=O)N(Cc1ccco1)C2=O` [CBK268640], the viability at 28.5 h, 10 µM is 95.6%.

On to `COCCN1C(=O)c2ccc(C(=O)c3ccc4c(c3)C(=O)N(CCOC)C4=O)cc2C1=O` [CBK268641], for which the viability at 28.5 h, 10 µM amounted to 113%.

As for `O=C(Nc1ccccc1-c1nc2ccccc2s1)c1sc2cc(Cl)ccc2c1Cl` [CBK268642], the viability at 28.5 h, 10 µM came out at 88.5%.

Turning to `Cc1cccnc1NC(=O)C(C)Oc1ccccc1` (stereo not shown) [CBK268643], the viability at 28.5 h, 10 µM turned out to be 90.2%.

With `COc1ccc(-c2noc(CSc3nnc(-c4c[nH]c5ccccc45)n3C)n2)cc1OC` [CBK268644], the viability at 28.5 h, 10 µM was 88.8%.

With `Cc1ccc(S(=O)(=O)N(CC(=O)Nc2ccccc2F)c2cc(Cl)ccc2Cl)cc1` [CBK268647], the viability at 28.5 h, 10 µM is 111%.

As for `CN(CC(=O)Nc1ccccc1C(N)=O)S(=O)(=O)c1ccc(Br)cc1` [CBK268648], the viability at 28.5 h, 10 µM came out at 98.7%.

As for `O=C(NC(=S)Nc1cc(-c2nc3ccccc3[nH]2)ccc1Cl)c1ccccc1[N+](=O)[O-]` [CBK268649], the viability at 28.5 h, 10 µM was 93.7%.

As for `CN1CCN(C(=O)CNC(=O)CNS(=O)(=O)c2ccccc2)CC1` [CBK268651], the viability at 28.5 h, 10 µM amounted to 90.9%.

Turning to `CC(C)(C)N1C(=O)c2ccc(C(=O)NNC(=O)C(C#N)C(=O)c3ccc4c(c3)C(=O)N(C(C)(C)C)C4=O)cc2C1=O` (stereo not shown) [CBK268652], the viability at 28.5 h, 10 µM is 90.3%.

As for `Cc1ccc(SCCN2CCN(Cc3ccccc3)CC2)cc1` [CBK268653G], the viability at 28.5 h, 10 µM is 99.1%.

Turning to `COc1ccccc1NC(=O)CNC(=O)c1ccc([N+](=O)[O-])cc1` [CBK268657], the viability at 28.5 h, 10 µM amounted to 91.9%.

Turning to `CCOC(=O)N1CCN(C(=O)c2ccc(CS(=O)(=O)c3ccc(C)cc3)cc2)CC1` [CBK268659], the viability at 28.5 h, 10 µM is 88.3%.

For `CCOC(=O)c1ccc(NC(=O)C(C)Oc2ccccc2C)cc1` (stereo not shown) [CBK268660], the viability at 28.5 h, 10 µM came to 102%.

As for `COc1ccc(OC)c(NC(=O)Cn2cc(C(C)=O)c3ccccc32)c1` [CBK268661], the viability at 28.5 h, 10 µM stood at 92.5%.

As to `Cc1[nH]c2ccccc2c1C(=O)CSc1nnc(Cc2cccs2)n1C` [CBK268663], the viability at 28.5 h, 10 µM came to 105%.

On to `CN(C)S(=O)(=O)N(CC(=O)Nc1ccccc1C(F)(F)F)c1ccccc1` [CBK268665], for which the viability at 28.5 h, 10 µM is 102%.

For the compound `CCc1cccc(C)c1NC(=O)CN(c1cccc(Cl)c1Cl)S(=O)(=O)c1ccc(C)cc1` [CBK268666], the viability at 28.5 h, 10 µM was 84.7%.

For `Cc1ccc(O)c(NC(=O)COc2ccc(Cl)cc2)c1` [CBK268670], the viability at 28.5 h, 10 µM turned out to be 108%.

`NC(=O)CSc1nnc(-c2cccnc2)n1Cc1ccccc1` [CBK268672]: the viability at 28.5 h, 10 µM is 99.2%.

In the case of `O=C(Nc1ccc2oc(-c3cccnc3)nc2c1)c1cc([N+](=O)[O-])ccc1N1CCOCC1` [CBK268674], the viability at 28.5 h, 10 µM came to 95%.

Regarding `Cc1ccc(NC(=O)CSc2nnc3c4c5c(sc4nc(-n4nc(C)cc4C)n23)COC(C)(C)C5)cc1` [CBK268675], the viability at 28.5 h, 10 µM worked out at 93.2%.

As for `Cc1cccc(N(CC(=O)Nc2cccnc2)S(=O)(=O)c2ccc(Cl)cc2)c1` [CBK268676], the viability at 28.5 h, 10 µM was 85.3%.

On to `Cc1ccc(C)c2c1c1nc3ccccc3nc1n2Cc1nnc(-c2ccccc2)o1` [CBK268677], for which the viability at 28.5 h, 10 µM came out at 104%.

One may read the viability as a read-out of living cells in per cent, often relative to untreated cells.

For the origin of these results see PMC12040169 (PLOS Biology, 2025).
